Columns and labels:
Type in all cases: cell-based, mouse
[1] = test system: Ppara-null hippocampal neurons; experiment: Dendritic spine density (phalloidin) in transduced Ppara-null hippocampal neurons; conditions: lenti-FL-Ppara
Method: (§1) Ppara-null hippocampal neurons were transduced with lentivirions containing GFP (vector), FL-Ppara, and Y464D-Ppara for 48 h followed by treatment with vehicle (DMSO) (FIG. 11A), OCT (FIG. 11B), HEX (FIG. 11C), HMB (FIG. 11D), and WY14643 (FIG. 11E) for 24 h. Then neurons were stained for phalloidin to measure spine density. FIG. 11F) A representative picture of dendrite with spines (Cyan color) used for counting area of spine heads. Area of spine heads (FIG. 11G) and number of spines (FIG. 11H) in 10 μm of dendrites. Results are mean±SEM of 5 neurons per group. ^ap<0.05 vs vector only; ^bp<0.05 vs FL-Ppara. AMPA-driven calcium influx was measured in OCT (red), HEX (green) and HMB (purple)-treated Ppara-null hippocampal neurons transduced with lentivirions containing FL-Ppara (FIG. 11I), Y314D-Ppara (FIG. 11J), Y464D-Ppara (FIG. 11K), and Y314D/Y464D-Ppara (FIG. 11L). All neurons were treated with 50 μM of NMDA receptor antagonist N20C to inhibit passive calcium flow through NMDA receptor. (FIG. 11M-P) Similarly NMDA-driven calcium influx was measured in the lentivius-infected Ppara-null hippocampal neurons in the presence of different endogenous ligands. In these cases, Naspm-HCl was treated to stop the passive flow of calcium currents through AMPA receptor. Results are mean of three independent experiments.
Dendritic spines are the crucial mediators of synaptic transmission among central neurons and often serve as a primary candidate for the long term morphological substrates of neuronal plasticity^12,13. Therefore, the effect of these ligands on the increase of spine density in cultured hippocampal neurons was studied. Briefly, mouse Ppara-null hippocampal neurons were transduced with lentivirus containing empty vector, FL-Ppara, or Y464D-Ppara for a week followed by the treatment with OCT, HEX, and HMB for four more days. After that, neurons were labelled with phalloidin to monitor the spine density. […] This observation was further validated by measuring the area of spine heads (FIG. 11F-G) and number of spines (FIG. 11H) in HEX, OCT, and HMB-treated Ppara-null neurons. HEX (FIG. 17G-H), OCT (FIG. 17I-J) and HMB (FIG. 17K-L) stimulated the expression of CREB in Ppara-null hippocampal neurons that were transduced with lentivirons containing the FL-Ppara gene.
Hippocampal regions were dissected from 18-day-old embryonic fetus as described elsewhere (PMID: 25007337), combined and plated in poly-D-lysine coated plate for another 2-3 weeks for branching. After that, these neurons were transduced with GFP-containing lentivirions for 2 d. Neurons were stained with Dylight-554-conjugated phalloidin (Cat #21834; Thermofisher) as per manufactures protocol and visualized in fluorescence microscope. […]

[2] = test system: PPRE-driven luciferase activity; experiment: PPRE-luciferase assay in Ppara-null astrocytes transduced with Ppara constructs; conditions: Ppara-null astrocytes (empty vector)
Method: (§2) Astrocytes plated at 60-70% confluence were transfected with tk-PPREx3-Luc, a PPRE-dependent luciferase reporter construct. After 24 h of transfection, cells were treated with different concentrations of HEX (FIG. 10A), OCT (FIG. 10B) and HMB (FIG. 10C) for 4 h followed by monitoring luciferase activity. Under similar experimental condition, MTT was performed to understand the effect of these ligands on cell viability (FIG. 10D, HEX; FIG. 10E, OCT; FIG. 10F, HMB). Results are mean±SD of three independent experiments. ^ap<0.001 vs. control. Ppara-null astrocytes were transduced with lentivirions containing empty vector (FIG. 10G), FL-Ppara (FIG. 10H), Y314D-Ppara (FIG. 10I), Y464D-Ppara (FIG. 10J), and Y314D/Y464D-Ppara (FIG. 10K) for 48 h followed by transfection with tk-PPREx3-Luc. After 24 h of transfection, cells were treated with different doses of HEX, OCT and HMB for 4 h followed by monitoring luciferase activity. PPRE luciferase activity was assayed in Ppara-null astrocytes transduced with lentivirions containing empty vector (FIG. 10L), FL-Ppara (FIG. 10M), Y314D-Ppara (FIG. 10N), Y464D-Ppara (FIG. 10O), and Y314D/Y464D-Ppara (FIG. 10P) after treatment with different doses of WY14643, fenofibrate, and clofibrate. PPRE luciferase activity was assayed in primary hippocampal neurons transduced with lentivirions containing empty vector (FIG. 10Q), FL-Ppara (FIG. 10R), Y314D-Ppara (FIG. 10S), Y464D-Ppara (FIG. 10T), and Y314D/Y464D-Ppara (FIG. 10U) after treatment with different doses of HEX, OCT and HMB. Results are mean±SD of three independent experiments. ^ap<0.001 vs. control.

[3] = test system: NMDA-driven calcium influx; experiment: NMDA-driven calcium influx in transduced Ppara-null hippocampal neurons
Method: as §1

[4] = test system: AMPA-driven calcium influx; experiment: AMPA-driven calcium influx in transduced Ppara-null hippocampal neurons
Method: as §1

[5] = test system: PPRE-driven luciferase activity; experiment: PPRE-luciferase assay in Ppara-null hippocampal neurons transduced with Ppara constructs
Method: as §2
Isolation of Mouse Hippocampal Neurons: Hippocampal neurons were isolated from fetuses (E18) of pregnant female Ppara-null and strain-matched WT littermate mice as described by us^6,13,35-36 with some modifications. Briefly, dissection and isolation procedures were performed in an ice-cold, sucrose buffer solution (sucrose 0.32 M, Tris 0.025 M; pH 7.4)^37. The skin and the skull were carefully removed from the brain by scissors followed by peeling off the meninges by a pair of fine tweezers. Next, a fine incision was made in the middle line around the circle of Willis and medial temporal lobe was opened up. Hippocampus was isolated as a thin slice of tissue located near the cortical edge of medial temporal lobe. Hippocampal tissues isolated from all fetal pups (n>10) were combined together and homogenized with 1 ml of trypsin for 5 minutes at 37° C. followed by neutralization of trypsin. The single cell suspension of hippocampal tissue was plated in the poly-D-lysine pre-coated 75 mm flask. Five min after plating, the supernatants were carefully removed and replaced with complete neurobasal media. The next day, 10 μM AraC was added to remove glial contamination in the neuronal culture. The pure cultures of hippocampal neurons were allowed to differentiate fully for 9-10 days before treatment^35,36,38.

| Compound | density of spines [1] | PPRE-driven luciferase activity [2] | NMDA-mediated calcium influx ([3]; lenti-FL-Ppara) | NMDA-mediated calcium influx ([3]; lenti-Y314D-Ppara) | NMDA-mediated calcium influx ([3]; lenti-Y314D/Y464D-Ppara) | NMDA-mediated calcium influx ([3]; lenti-Y464D-Ppara) | AMPA-mediated calcium influx ([4]; lenti-FL-Ppara) | AMPA-mediated calcium influx ([4]; lenti-Y314D-Ppara) | AMPA-mediated calcium influx ([4]; lenti-Y314D/Y464D-Ppara) | AMPA-mediated calcium influx ([4]; lenti-Y464D-Ppara) | PPRE-luciferase activity ([5]; lenti-Y314D/Y464D-Ppara) | PPRE-luciferase activity ([5]; lenti-Y464D-Ppara) |
| --- | --- | --- | --- | --- | --- | --- | --- | --- | --- | --- | --- | --- |
| CCOC(=O)C(C)(C)C(C)O (stereo not drawn) [HMB] | stimulated | remained unable to induce | stimulated | partially restore | remained unable to increase | remained unable to increase | stimulated | partially restore | remained unable to increase | remained unable to increase | completely abrogated | completely abrogated |
| CCCCCCCCCCCCCCCC(N)=O [HEX, hexadecanamide] | stimulated | remained unable to induce | stimulated | partially restore | remained unable to increase | remained unable to increase | stimulated | partially restore | remained unable to increase | remained unable to increase | completely abrogated | completely abrogated |
| CCCCCCCCC=CCCCCCCCC(N)=O [OCT, 9-octadecenamide] | stimulated | remained unable to induce | stimulated | partially restore | remained unable to increase | remained unable to increase | stimulated | partially restore | remained unable to increase | remained unable to increase | completely abrogated | completely abrogated |

Reference: patent US10617664B2, “Brain derived PPARα ligands” (Rush University Medical Center, priority 2015, dated 2020)
